Source: PMC12516379, “Rotamer-Controlled Self-Immolative Linkers Enable Tunable Release of Neurosteroid Oxime Prodrugs” (ACS Medicinal Chemistry Letters, 2025)

Experiments:
[1] = Stability in acetate buffer pH 5.0 at room temperature via HPLC (UV); assay type: physicochemical
Protocol: (§1) Stability studies were conducted in PBS and acetate buffer utilizing high performance liquid chromatography for potential drug storage considerations. […]
(§2) All experiments were performed in duplicate and results are presented as the average of two experimental replicates.
(§3) 1.1 Aqueous Stability in PBS and Acetate Buffer via HPLC
(§4) Material and Instrumentation
(§5) HPLC grade acetonitrile (MeCN) […] HPLC grade water (H 2O), and formic acid (FA) were purchased from Fisher Scientific.
(§6) Puradisc 4 mm PTFE (0.45 μm) syringe filters from Cytiva. Gibco ® Dulbecco’s phosphate-buffered saline (DPBS 1X, no calcium, no magnesium, pH = 7.03) and acetate buffer (pH = 5.0, 10 mM) were purchased directly from Thermo Fisher Scientific and Cytiva, respectively.
(§7) Aqueous stability experiments were performed on an Agilent 1100 HPLC equipped with an Agilent G1315B diode array detector, an Agilent G1316A heated column compartment, and a Zorbax Eclipse XDB-C18 (4.6 x 150 mm, 5 μm) column.
(§8) Procedure for Aqueous Stability Experiments
(§9) Each sample was first weighed out in two separate 2.0 mL vials using an analytical balance.
(§10) Unless otherwise specified, the test compounds were then dissolved in the aqueous media (PBS or acetate buffer) at a standard concentration of 1 mg/mL. All mixtures were subsequently sonicated for approximately 30 sec. […]
(§11) min), precipitates observed in sample solutions were filtered with a PTFE syringe filter prior to analysis. Immediately after sample preparation, injection by the HPLC autosampler was performed, which was recorded as the initial time point (t = 0 min). Solutions were then kept in the autosampler at RT and reinjected at designated intervals without additional filtration or sample modification. Remaining prodrug was defined by the area under the curve (AUC) at 254 nm. Aqueous stability was ascertained by calculating the percentage of the parent compound remaining after each time point. Linear regression of the time (x-axis) vs. ln(%remaining) (y-axis) plot afforded the rate constant k (slope = -k). Pseudo first-order half-lives were then calculated by the following equation: t1/2 = 0.693/k.

[2] = Stability in PBS at room temperature via HPLC (UV); assay type: physicochemical; settings: phosphate-buffered saline (DPBS)
Protocol: as §1, §2, §3, §4, §5, §6, §7, §8, §9, §10, §11

[3] = PBS stability assay at 37 °C via LC-MS/MS; assay type: physicochemical; settings: for half-life at 3 µM: pH 7.03, PBS
Protocol: To address this, prodrug stability was further evaluated in human plasma at 37 °C using liquid chromatography–tandem mass spectrometry (LC-MS/MS). For direct comparison, a parallel screen was conducted in PBS under identical conditions (Table ). To prevent premature degradation prior to LC-MS/MS analysis, acetonitrile containing formic acid was used as a quenching solution to acidify and stabilize the prodrugs in vials. […] This limitation in detection, along with the need for a more uniform and broadly applicable assessment across all compounds, prompted us to monitor the formation of the parent oxime as an alternative readout.
Stability experiments in human plasma and PBS were performed via liquid chromatography-tandem mass spectrometry (LC-MS/MS) to determine and compare rate of cleavage of progesterone prodrugs as well as selected allopregnanolone prodrugs (3 µM) when incubated at 37 °C. All experiments were performed in duplicate and results are presented as the average of two experimental replicates.

[4] = Plasma stability assay at 37 °C via LC-MS/MS, human plasma; assay type: in vitro ADME; settings: for half-life at 3 µM: human, plasma;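 on all read-outs here: prodrugs at 3 µM incubated in human plasma at 37 °C, intact prodrug quantified by LC-MS/MS over time, values are means of duplicate runs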
[5] = Plasma stability assay via LC-MS/MS, rat plasma; assay type: in vitro ADME; settings: read-out: t1/2 in rat plasma (Table S19) (converted)
Protocol: (§12) Building on our observation that rotamer control in the steric series can be modulated by enzymatic stabilization or activation, we next evaluated whether this effect was species dependent. To investigate this, we performed comparative stability studies by incubating select prodrugs (20a, 20b, 20l and 20t; Figure ) in mouse and rat plasma – two of the most commonly used preclinical species in drug development. This approach allowed us to assess the potential influence of species-specific enzymes on rotamer equilibria and, by extension, prodrug activation rates. The self-immolation profiles for the sterically tuned linker series (20a–b) reveal discernible, species-dependent differences prodrug stability. […] While the precise biochemical drivers remain unclear, this observation warrants further investigation beyond the scope of this work.
(§13) 1.2 Stability in Plasma and PBS via LCMS
(§14) Procaine (positive control) was purchased from Sigma-Aldrich. HPLC grade MeCN, MeOH, H2O, and FA were purchased from Fischer Scientific. Human plasma (cat. No. […]- […]
(§15) 0102242) were obtained from BIOIVT. DPBS 1X (no calcium, no magnesium, pH = 7.03) was purchased from Thermo Fischer Scientific. Stock solutions were prepared in 100% DMSO, and suitable dilutions of target analytes were prepared in 0.1% FA /MeCN for method development.
(§16) For PBS assay Gibco® Dulbecco’s phosphate-buffered saline (DPBS 1X, no calcium, no magnesium, pH = 7.03) was utilized. All experiments were performed in duplicate and results are presented as the average of two experimental replicates.
(§17) Procedure for Plasma Stability Assay
(§18) Test compounds and positive control (i.e. procaine) were dissolved in DMSO to make a 10 mM stock solution and subsequently diluted to 500 μM in 50% MeCN and PBS. This intermediate stock solution was prepared and added immediately prior to the start of each test compound experiment. Plasma was thawed at ambient temperature and aliquoted (663.0 μL) into 1.5 mL Eppendorf tubes. Plasma was incubated at 37 °C for 10 minutes in an incubator shaker at 150 rpm, and the reactions were initiated by addition of the test compound or positive control (4.0 µL, 3 μM). The spiked plasma samples were incubated at 37 °C. For designated time points, 75 µL aliquots were removed from the incubation mixture and immediately quenched in 150 µL of MeCN/0.1%FA with internal standard (ISTD, 2 µM d 5-7-ethoxy coumarin). […] The supernatant was transferred to an LC-MS vial and analyzed by LC/MS-MS. […]
(§19) LC–MS/MS analysis was performed using an Agilent 1260 Infinity II HPLC, coupled with an Agilent G6460 triple quadrupole mass spectrometer (Agilent Technologies, USA). All the data were acquired employing Agilent 6460 Quantitative Analysis data processing software. […]

[6] = Plasma stability assay via LC-MS/MS, mouse plasma; assay type: in vitro ADME; settings: read-out: t1/2 in mouse plasma (Table S20) (converted)
Protocol: as §12, §13, §14, §15, §16, §17, §18, §19

[7] = Aqueous solubility by visual inspection in acetate buffer (pH 5); settings: sodium acetate buffer
Protocol: For the solubility assessment, acetate buffer (pH 5) was selected as the media of choice to ensure prodrug stability during analysis.
High aqueous solubility was determined by visual inspection of 5 mg solid material in 0.5 mL
sodium acetate buffer solution. This media was selected to ensure stability of prodrugs during
dissolution in 50 mg/mL aqueous media.

[8] = Formation of progesterone oxime 3 from prodrugs in human plasma at 37 °C over 2 h; assay type: in vitro ADME; settings: 2 h period
Protocol: Given the greater biological relevance of plasma, we focused on quantifying the formation of progesterone and allopregnanolone oxime in human plasma at 37 °C over a 2 h period. Results for selected progesterone prodrugs are presented in Figure A–C, illustrating the broad range of plasma cleavage rates as a function of promoiety design (see Figure S13 in Supporting Information for complete data set). Complete stability data for synthesized allopregnanolone prodrugs (Figures S18–S20) are provided in the Supporting Information. Given that their trends closely paralleled the progesterone series, they were not discussed in detail in the main text. […] This unexpected result prompted further investigation using computational modeling, described in the following section. […] Higher pK a values were associated with faster and more complete oxime formation, likely due to enhanced H-bonding which could stabilize the reactive syn-conformer. […] For the heterocyclic pyrrolidine and angle-strained series (Figure C), the release rates closely matched the experimentally determined prodrug half-lives (Table ), which were shorter in human plasma than in PBS. […] Although both 20s and 20t are capable of adopting the reactive syn-rotamer, their self-immolation reactivity diverged due to differences in linker geometry. The cyclopropane in 20s induces angle strain that hinders nucleophilic attack, rendering the compound stable under both PBS and plasma conditions. […] This intriguing result warrants further investigation, with follow-up studies currently in progress. Finally, the nucleophilic capacity of the amine tethers in prodrugs 20w–20z were evaluated based on their ability to cyclize in plasma, as detailed in the Supporting Information Figure S13.
as §13, §14, §15, §16, §17
Test compounds and positive control (i.e. procaine) were dissolved in DMSO to make a 10 mM stock solution and subsequently diluted to 500 μM in 50% MeCN and PBS. […] The supernatant was transferred to an LC-MS vial and analyzed by LC/MS-MS. […]

[9] = pH 5, acetate buffer pH 5.0, RT, 1 mg/mL, HPLC 254 nm, read-out: t1/2 in acetate buffer at RT (Tables S5-S8) (converted)
[10] = pH 5, acetate buffer pH 5.0, rt, HPLC (UV), read-out: Half-life (t½) pH 5.0 rt (converted)
[11] = pH 5, acetate buffer pH 5.0, rt, read-out: t½: pH 5.0, rt (Table S23) (converted)
[12] = pH 7.03, DPBS pH 7.03, RT, 1 mg/mL, HPLC 254 nm, read-out: t1/2 in PBS buffer at RT (Tables S1-S4) (converted)
[13] = pH 7.03, PBS, rt, HPLC (UV), read-out: Half-life (t½) PBS rt (converted)
[14] = pH 7.03, PBS, rt, read-out: t½: PBS, rt (Table S23) (converted)
[15] = phosphate-buffered saline (DPBS), 37 °C, 3 µM, LC-MS/MS, read-out: t1/2 in PBS at 37 °C (Tables S14-S17) (converted)
[16] = phosphate-buffered saline (DPBS), 37 °C, LC-MS/MS, read-out: Half-life (t½) PBS 37°C (converted)
[17] = phosphate-buffered saline (DPBS), 37 °C, read-out: PBS, 37 °C t½ (Table S23) (converted)
[18] = 3 µM, LC-MS/MS, read-out: t1/2 in human plasma at 37 °C (Tables S10-S13, S18) (converted)
[19] = LC-MS/MS, read-out: Half-life (t½) Plasma 37°C (converted)
[20] = read-out: Plasma, 37 °C t½ (Table S23) (converted)
[21] = pH 5, aqueous buffer, thermodynamic from solid

SMILES | half-life at 1 mg/mL [1, 9] | half-life at 1 mg/mL [1, 10] | half-life at 1 mg/mL [1, 11] | half-life at 1 mg/mL [2, 12] | half-life at 1 mg/mL [2, 13] | half-life at 1 mg/mL [2, 14] | PBS, 37 °C %rem. at 2h (Table S23) ([3]; PBS, 37 °C, 2 h) | half-life at 3 µM [3, 15] | half-life at 3 µM [3, 16] | half-life at 3 µM [3, 17] | Plasma, 37 °C %rem. at 2h (Table S23) [4] | half-life at 3 µM [4, 18] | half-life at 3 µM [4, 19] | half-life at 3 µM [4, 20] | half-life at 3 µM [5] | half-life at 3 µM [6] | solubility [7, 21] | Formation/release of oxime 3 in human plasma, in words [8] | other results
CNCCN(C(=O)O/N=C(\C)[C@H]1CC[C@H]2[C@@H]3CCC4=CC(=O)CC[C@]4(C)[C@H]3CC[C@]12C)C1CC1.O=C(O)C(F)(F)F [20b] | > 7 days | > 7 days | > 7 days | 1690 ± 2.4 min | 1690 min | 1690 min | 68% | 4.5 h | 4.5 h | 4.5 h | 31% | 76.2 min | 76.2 min | 76.2 min | 138 min | 324 min | > 10000 µg/mL |  | half-life at 3 µM ([3]; phosphate-buffered saline (DPBS), 37 °C, read-out: t1/2 (h) PBS, 37 °C (Tables S25, S26) (converted)): 4.5 h; remaining at 2 h, 3 µM ([3]; phosphate-buffered saline (DPBS), pH 7.03, PBS, 37 °C, 2 h, read-out: % Remaining @ 2h, PBS, 37 °C (Tables S25, S26)): 68%
CNCCN(CCN(C)C)C(=O)O/N=C(\C)[C@H]1CC[C@H]2[C@@H]3CCC4=CC(=O)CC[C@]4(C)[C@H]3CC[C@]12C [20g] | 3.16 days | 3.16 days | 3.16 days | 130.2 ± 1.2 min | 130 min | 130 min |  |  |  |  |  |  |  |  |  |  | < 10000 µg/mL | rapid, first-order release | 
C/C(=N\OC(=O)N(C)C[C@@H]1CCCN1)[C@H]1CC[C@H]2[C@@H]3CCC4=CC(=O)CC[C@]4(C)[C@H]3CC[C@]12C.O=C(O)C(F)(F)F [20l] | 7.29 days | 7.29 days | 7.29 days | 114 ± 7.2 min | 114 min | 114 min | 8% | 0.74 h | 0.74 h | 0.74 h | 1% | 18.6 min | 18.6 min | 18.6 min | 24 min | 24 min | > 10000 µg/mL |  | 
C/C(=N\OC(=O)N(C)C[C@@H]1CC(F)(F)CN1)[C@H]1CC[C@H]2[C@@H]3CCC4=CC(=O)CC[C@]4(C)[C@H]3CC[C@]12C [20r] |  |  |  |  |  |  | 72% | 4.93 h | 4.93 h | 4.93 h | stable |  |  | > 1440 min |  |  |  | low levels of oxime | Prodrug stability / self-immolation in buffer, in words ([3]; PBS): highly stable, noncleaving prodrug; t1/2 in human plasma at 37 °C (Tables S10-S13, S18) ([4]; 3 µM, LC-MS/MS): stable; Half-life (t½) Plasma 37°C ([4]; LC-MS/MS): stable; solubility ([7]; pH 5): < 10000 µg/mL
CNC1(CN(C)C(=O)O/N=C(\C)[C@H]2CC[C@H]3[C@@H]4CCC5=CC(=O)CC[C@]5(C)[C@H]4CC[C@]23C)CCC1 [20t] | > 7 days | > 7 days | > 7 days | 629 min | 629 min | 629 min | 14% | 0.94 h | 0.94 h | 0.94 h | 4% | 26.4 min | 25.8 min | 26.4 min | 27.6 min | 20.4 min | > 10000 µg/mL |  | 
